Data on 16 compounds can be found in US20100311714A1, “1H-IMIDAZO[4,5-c]QUINOLINONE COMPOUNDS” (priority 2009, published 2010).

pIC50: −log10 of the molar value.

T1 sequence (P42338 with tags, fused parts or gaps limits assumed): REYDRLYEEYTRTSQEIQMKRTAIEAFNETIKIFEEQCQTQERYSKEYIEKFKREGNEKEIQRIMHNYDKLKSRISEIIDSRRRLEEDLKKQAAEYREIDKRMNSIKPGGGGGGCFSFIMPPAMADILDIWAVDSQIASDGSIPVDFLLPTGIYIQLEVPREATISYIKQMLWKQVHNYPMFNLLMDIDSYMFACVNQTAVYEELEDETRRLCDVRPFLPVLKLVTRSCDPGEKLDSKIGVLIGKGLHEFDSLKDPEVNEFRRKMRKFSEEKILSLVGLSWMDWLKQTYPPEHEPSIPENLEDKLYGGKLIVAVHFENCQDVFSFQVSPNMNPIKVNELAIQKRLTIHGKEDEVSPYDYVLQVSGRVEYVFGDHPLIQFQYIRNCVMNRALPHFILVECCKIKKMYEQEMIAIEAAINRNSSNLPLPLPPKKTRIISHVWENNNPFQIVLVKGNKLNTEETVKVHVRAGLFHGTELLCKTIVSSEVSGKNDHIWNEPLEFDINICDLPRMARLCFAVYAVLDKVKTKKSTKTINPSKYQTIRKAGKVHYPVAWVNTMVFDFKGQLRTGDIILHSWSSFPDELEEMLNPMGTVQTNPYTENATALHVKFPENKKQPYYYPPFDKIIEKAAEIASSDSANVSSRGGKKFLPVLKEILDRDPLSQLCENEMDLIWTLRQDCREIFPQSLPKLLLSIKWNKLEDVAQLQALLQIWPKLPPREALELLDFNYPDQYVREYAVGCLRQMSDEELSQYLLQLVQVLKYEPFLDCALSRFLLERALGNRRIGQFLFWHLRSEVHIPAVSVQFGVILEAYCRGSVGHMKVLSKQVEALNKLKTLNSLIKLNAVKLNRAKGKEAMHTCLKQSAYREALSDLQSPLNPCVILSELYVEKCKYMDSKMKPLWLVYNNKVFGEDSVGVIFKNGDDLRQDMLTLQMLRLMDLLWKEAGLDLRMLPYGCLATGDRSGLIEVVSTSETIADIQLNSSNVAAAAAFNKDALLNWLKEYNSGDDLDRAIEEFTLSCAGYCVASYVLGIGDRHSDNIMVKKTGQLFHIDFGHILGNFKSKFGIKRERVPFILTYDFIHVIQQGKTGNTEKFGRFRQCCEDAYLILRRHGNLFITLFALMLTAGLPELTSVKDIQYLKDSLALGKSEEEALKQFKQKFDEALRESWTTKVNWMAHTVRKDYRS

This assay concerns the target T1, PI3K beta (Homo sapiens, UniProt P42338).
T1 construct: for the full-length p110-b subunit are generated and fused by overlapping PCR; His tag (C); made in house; host or cells: baculovirus BV949; Tn5 (Trichoplusia ni) or TiniPro insect cells
The assay can be described thus: PI3K beta kinase assay (Kinase-Glo luminescence). Format: biochemical. The note with it: read-out: EPK_PI3Kbeta/IC50. A digest of the protocol: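 PI3Kβ construct BV949 (p85 iSH2–p110β full-length, C-His), 25 nM, reacted with 1 μM ATP and 10 μg/mL phosphatidylinositol in Tris pH 7.5, MgCl2, NaCl, CHAPS, DTT buffer, 60 min at room temperature. Remaining ATP by Kinase-Glo luminescence; IC50 from 4-parameter logistic fit of 8 concentrations.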
Background: Kinase-Glo reads ATP consumption through a luciferase reaction.
Take `COc1cc(-c2ccc3ncc4c(c3c2)n(-c2ccc(N3CC(O)C3)nc2C)c(=O)n4C)cnc1CO` [Example 29.5, 1-[6-(3-Hydroxy-azetidin-1-yl)-2-methyl-pyridin-3-yl]-8-(6-hydroxymethyl-5-methoxy-pyridin-3-yl)-3-methyl-1,3-dihydro-imidazo[4,5-c]quinolin-2-one]: the pIC50 is 6.56.

As to `COc1ncc(-c2ccc3ncc4c(c3c2)n(-c2ccc(N3CC(O)C3)nc2C)c(=O)n4C)c(OC)n1` [Example 29.6, 8-(2,4-Dimethoxy-pyrimidin-5-yl)-1-[6-(3-hydroxy-azetidin-1-yl)-2-methyl-pyridin-3-yl]-3-methyl-1,3-dihydro-imidazo[4,5-c]quinolin-2-one], the pIC50 was 7.23.

`CNc1ncc(-c2ccc3ncc4c(c3c2)n(-c2ccc(C(C)(C)O)nc2C)c(=O)n4C)cc1F` [Example 31.1, 8-(5-Fluoro-6-methylamino-pyridin-3-yl)-1-[6-(1-hydroxy-1-methyl-ethyl)-2-methyl-pyridin-3-yl]-3-methyl-1,3-dihydro-imidazo[4,5-c]quinolin-2-one]: the pIC50 was 6.66.

`CCOc1ccc(-c2ccc3ncc4c(c3c2)n(-c2ccc(C(C)(C)O)nc2C)c(=O)n4C)cn1` [Example 31.4, 8-(6-Ethoxy-pyridin-3-yl)-1-[6-(1-hydroxy-1-methyl-ethyl)-2-methyl-pyridin-3-yl]-3-methyl-1,3-dihydro-imidazo[4,5-c]quinolin-2-one]: the pIC50 is 6.47.

As to `Cc1nc(C(C)(C)O)ccc1-n1c(=O)n(C)c2cnc3ccc(-c4cnc(N)c(C(F)(F)F)c4)cc3c21` [Example 31.5, 8-(6-Amino-5-trifluoromethyl-pyridin-3-yl)-1-[6-(1-hydroxy-1-methyl-ethyl)-2-methyl-pyridin-3-yl]-3-methyl-1,3-dihydro-imidazo[4,5-c]quinolin-2-one], the pIC50 is 8.05.

As for `Cc1nc(C(C)(C)O)ccc1-n1c(=O)n(C)c2cnc3ccc(-c4cncc(C(C)(C)C#N)c4)cc3c21` [Example 31.6, 2-(5-{1-[6-(1-Hydroxy-1-methyl-ethyl)-2-methyl-pyridin-3-yl]-3-methyl-2-oxo-2,3-dihydro-1H-imidazo[4,5-c]quinolin-8-yl}-pyridin-3-yl)-2-methyl-propionitrile], the pIC50 was 7.60.

As to `CCNc1ncc(-c2ccc3ncc4c(c3c2)n(-c2ccc(C(C)(C)O)nc2C)c(=O)n4C)cn1` [Example 31.7, 8-(2-Ethylamino-pyrimidin-5-yl)-1-[6-(1-hydroxy-1-methyl-ethyl)-2-methyl-pyridin-3-yl]-3-methyl-1,3-dihydro-imidazo[4,5-c]quinolin-2-one], the pIC50 is 6.20.

As for `Cc1nc(C(C)(C)O)ccc1-n1c(=O)n(C)c2cnc3ccc(-c4cncc(C5(C#N)CCC5)c4)cc3c21` [Example 31.8, 1-(5-{1-[6-(1-Hydroxy-1-methyl-ethyl)-2-methyl-pyridin-3-yl]-3-methyl-2-oxo-2,3-dihydro-1H-imidazo[4,5-c]quinolin-8-yl}-pyridin-3-yl)-cyclobutanecarbonitrile], the pIC50 was 7.52.

For the compound `CNc1ncc(-c2ccc3ncc4c(c3c2)n(-c2ccc(N3CC[C@H](O)C3)nc2C)c(=O)n4C)cn1` [Example 32.1, 1-[6-((S)-3-Hydroxy-pyrrolidin-1-yl)-2-methyl-pyridin-3-yl]-3-methyl-8-(2-methylamino-pyrimidin-5-yl)-1,3-dihydro-imidazo[4,5-c]quinolin-2-one], the pIC50 is 6.99.

With `CNc1ncc(-c2ccc3ncc4c(c3c2)n(-c2ccc(N3CC[C@H](O)C3)nc2C)c(=O)n4C)cc1F` [Example 32.2, 8-(5-Fluoro-6-methylamino-pyridin-3-yl)-1-[6-((S)-3-hydroxy-pyrrolidin-1-yl)-2-methyl-pyridin-3-yl]-3-methyl-1,3-dihydro-imidazo[4,5-c]quinolin-2-one], the pIC50 is 5.97.

As to `COc1ncc(-c2ccc3ncc4c(c3c2)n(-c2ccc(N3CC[C@H](O)C3)nc2C)c(=O)n4C)c(OC)n1` [Example 32.3, 8-(2,4-Dimethoxy-pyrimidin-5-yl)-1-[6-((S)-3-hydroxy-pyrrolidin-1-yl)-2-methyl-pyridin-3-yl]-3-methyl-1,3-dihydro-imidazo[4,5-c]quinolin-2-one], the pIC50 is 6.72.

For the compound `CNc1ncc(-c2ccc3ncc4c(c3c2)n(-c2ccc(N3CC[C@H](O)C3)nc2C)c(=O)n4C)cc1C(F)(F)F` [Example 32.5, 1-[6-((S)-3-Hydroxy-pyrrolidin-1-yl)-2-methyl-pyridin-3-yl]-3-methyl-8-(6-methylamino-5-trifluoromethyl-pyridin-3-yl)-1,3-dihydro-imidazo[4,5-c]quinolin-2-one], the pIC50 was 7.43.

Take `Cc1nc(N2CC[C@H](O)C2)ccc1-n1c(=O)n(C)c2cnc3ccc(-c4cncc(OC(C)C)c4)cc3c21` [Example 32.8, 1-[6-((S)-3-Hydroxy-pyrrolidin-1-yl)-2-methyl-pyridin-3-yl]-8-(5-isopropoxy-pyridin-3-yl)-3-methyl-1,3-dihydro-imidazo[4,5-c]quinolin-2-one]: the pIC50 is 6.67.

For `Cc1nc(C(F)(F)F)ccc1-n1c(=O)n(C)c2cnc3ccc(-c4cncc(C(C)(C)O)c4)cc3c21` [Example 33.1, 8-[5-(1-Hydroxy-1-methyl-ethyl)-pyridin-3-yl]-3-methyl-1-(2-methyl-6-trifluoromethyl-pyridin-3-yl)-1,3-dihydro-imidazo[4,5-c]quinolin-2-one], the pIC50 was 7.16.

Regarding `CCNc1ncc(-c2ccc3ncc4c(c3c2)n(-c2ccc(N3CC[C@@H](O)C3)nc2C)c(=O)n4C)cc1C(F)(F)F` [Example 34.2, 8-(6-Ethylamino-5-trifluoromethyl-pyridin-3-yl)-1-[6-((R)-3-hydroxy-pyrrolidin-1-yl)-2-methyl-pyridin-3-yl]-3-methyl-1,3-dihydro-imidazo[4,5-c]quinolin-2-one], the pIC50 is 6.87.

For the compound `CCNc1ncc(-c2ccc3ncc4c(c3c2)n(-c2ccc(N3CC[C@@H](O)C3)nc2C)c(=O)n4C)cc1COCC` [Example 34.4, 8-(5-Ethoxymethyl-6-ethylamino-pyridin-3-yl)-1-[6-((R)-3-hydroxy-pyrrolidin-1-yl)-2-methyl-pyridin-3-yl]-3-methyl-1,3-dihydro-imidazo[4,5-c]quinolin-2-one], the pIC50 is 6.34.
